Active and inactive are the calls of the source. How the calls were made is not given here.
System: CCRIS mutagenicity, Ames/micronucleus/aberration tests
Assay: CCRIS mutagenicity studies
Conditions: Test System: AMES SALMONELLA TYPHIMURIUM, Method: STANDARD PLATE

Measured: mutagenic call

CSCCC(NC(=O)COc1cc(Cl)c(Cl)cc1Cl)C(=O)O (stereo not given)
inactive: Strain/Indicator: TA97, Metabolic Activation: NONE inactive; negative | Strain/Indicator: TA97, Metabolic Activation: RAT, LIVER, S-9, AROCLOR 1254 inactive; negative | Strain/Indicator: TA98, Metabolic Activation: NONE inactive; negative | Strain/Indicator: TA98, Metabolic Activation: RAT, LIVER, S-9, AROCLOR 1254 inactive; negative | Strain/Indicator: TA100, Metabolic Activation: NONE inactive; negative | Strain/Indicator: TA100, Metabolic Activation: RAT, LIVER, S-9, AROCLOR 1254 inactive; negative | Strain/Indicator: TA1535, Metabolic Activation: NONE inactive; negative | Strain/Indicator: TA1535, Metabolic Activation: RAT, LIVER, S-9, AROCLOR 1254 inactive; negative | Strain/Indicator: TA1538, Metabolic Activation: NONE inactive; negative | Strain/Indicator: TA1538, Metabolic Activation: RAT, LIVER, S-9, AROCLOR 1254 inactive; negative

Source: PubChem BioAssay AID1259407 (Chemical Carcinogenesis Research Information System (CCRIS), 2018)
